One experiment deals with T1, human JAK1 (Homo sapiens, UniProt P23458).
T1 construct: The kinase domain of human JAK1 was amplified; GST (N); made in house; host or cells: Sf9 insect cells (baculovirus)
Put plainly: Alphascreen tyrosine kinase enzyme assay, JAK1 kinase domain. The experiment is classed as biochemical. The following applies: read-out: JAK1 IC50_nM. On the technique in general: In Alpha technology, singlet oxygen from a donor bead excites a nearby acceptor bead.

The target of another experiment is T2, human JAK3 (Homo sapiens, UniProt P52333).
T2 construct: The kinase domain of human JAK3 was amplified; GST (N); made in house; host or cells: Sf9 insect cells (baculovirus)
The experiment is described as follows: Alphascreen tyrosine kinase enzyme assay, JAK3 kinase domain. The following applies: read-out: JAK3 IC50_nM. The class given is biochemical. The essentials: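 GST-affinity-purified human JAK3 kinase domain (baculovirus/Sf9) was pre-incubated 20 min with compound ([…]) in HEPES pH 7.5 buffer with MgCl2, vanadate and Tween 20. Biotinylated peptide substrate ([…]) and ATP were then added; phosphotyrosine was detected by AlphaScreen PY100 acceptor and streptavidin donor beads after 2–3 h.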

For a further experiment, the system named is CTLL2. Put plainly: Cellular screening, CTLL2 cells, Alamar Blue. The conditions noted are these: Mus musculus, CTLL-2, read-out: CTLL2 IC50_nM. The class given is cell-based. In a few lines:
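Viability is read with Alamar Blue at 544 nm, the dye added for the final 4-6 hours. Compounds were incubated for 40 hr with CTLL2 cells taken from late-log-phase culture, at 37° C in 5% CO2.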

A value given as a limit tells only on which side of the number the result lay.

T1 sequence (P23458 875-1153 limits assumed): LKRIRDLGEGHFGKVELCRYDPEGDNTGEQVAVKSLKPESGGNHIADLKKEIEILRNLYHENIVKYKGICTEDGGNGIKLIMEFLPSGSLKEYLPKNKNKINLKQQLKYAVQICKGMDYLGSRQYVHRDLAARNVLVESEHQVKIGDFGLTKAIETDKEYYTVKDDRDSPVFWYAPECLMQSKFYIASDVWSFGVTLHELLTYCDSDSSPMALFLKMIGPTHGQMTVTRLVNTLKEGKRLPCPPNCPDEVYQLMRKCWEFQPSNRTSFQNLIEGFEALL
T2 sequence (P52333 822-1111 limits assumed): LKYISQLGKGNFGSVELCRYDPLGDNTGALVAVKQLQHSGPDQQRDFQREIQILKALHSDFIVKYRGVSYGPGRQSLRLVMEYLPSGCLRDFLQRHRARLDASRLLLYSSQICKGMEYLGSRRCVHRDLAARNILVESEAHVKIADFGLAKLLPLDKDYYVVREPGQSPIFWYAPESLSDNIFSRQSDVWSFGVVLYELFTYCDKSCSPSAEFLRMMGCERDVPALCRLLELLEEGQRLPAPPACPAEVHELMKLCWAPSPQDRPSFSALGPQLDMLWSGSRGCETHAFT

Consider `Cc1cnc(Nc2ccc(N3CCOCC3)cc2)nc1Sc1ccc(NC(=O)/C=C\C(=O)O)cc1` [Compound 380, (Z)-4-(4-(5-methyl-2-(4-morpholinophenylao)pyrimidin-4-ylthio)phenylao)-4-oxobut-2-enoic acid], for which the figures for the IC50 on human JAK1, on human JAK3 and in the experiment with CTLL2 were > 1 µM, < 0.1 µM and > 20 µM, respectively.

`C=CC(=O)Nc1ccc(Sc2ccnc(Nc3ccc(S(N)(=O)=O)c(OC)c3)n2)cc1` [Compound 374, N-(4-(2-(3-methoxy-4-sulfamoylphenylao)pyrimidin-4-ylthio)phenyl)acrylamide]: the IC50 was > 1 µM at human JAK1, < 0.1 µM on human JAK3 and < 20 µM in the experiment with CTLL2.

As to `CNC(=O)/C=C\C(=O)Nc1ccc(Sc2nc(Nc3ccc(N4CCOCC4)cc3)ncc2C)cc1` [Compound 389, N1-methyl-N4-(4-(5-methyl-2-(4-morpholinophenylao)pyrimidin-4-ylthio)phenyl)maleamide], the IC50 on human JAK1 is > 1 µM; at human JAK3 it was < 0.1 µM; with CTLL2 it was < 1 µM.

In the case of `C=CC(=O)Nc1cccc(Sc2ccnc(Nc3cccc(N4CCOCC4)c3)n2)c1` [Compound 110, N-(3-(2-(3-morpholinophenylao)pyrimidin-4-ylthio)phenyl)acrylamide], the IC50 at human JAK1 is > 1 µM; on human JAK3, < 0.1 µM; in the experiment with CTLL2, < 5 µM.

As for `Cc1cnc(Nc2ccc(N3CCOCC3)cc2)nc1Sc1ccc(N2C(=O)CSCC2=O)cc1` [Compound 231, 4-(4-(5-methyl-2-(4-morpholinophenylao)pyrimidin-4-ylthio)phenyl)thiomorpholine-3,5-dione], the results for the IC50 on human JAK1, at human JAK3 and in the experiment with CTLL2 were > 1 µM, < 0.1 µM and < 20 µM, respectively.

As for `C=CC(=O)Nc1ccc(Sc2nc(Nc3ccc(OCCN4CCOCC4)cc3)ncc2C)cc1` [Compound 290, N-(4-(5-methyl-2-(4-(2-morpholinoethoxy)phenylao)pyrimidin-4-ylthio)phenyl)acrylamide], the IC50 on human JAK1 is > 1 µM; on human JAK3, < 0.1 µM; in the experiment on CTLL2, < 1 µM.

As for `N#Cc1ncn(Cc2ccc(Sc3ccnc(Nc4ccc(N5CCOCC5)cc4)n3)cc2)c1C#N` [Compound 201, 1-(4-(2-(4-morpholinophenylao)pyrimidin-4-ylthio)benzyl)-1H-imidazole-4,5-dicarbonitrile], the IC50 was > 1 µM on human JAK1, < 0.1 µM at human JAK3 and < 5 µM with CTLL2.

Take `C=CC(=O)Nc1ccc(Sc2nc(Nc3ccc(OC)c(NS(C)(=O)=O)c3)ncc2C)cc1` [Compound 293, N-(4-(2-(4-methoxy-3-(methylsulfonamido)phenylao)-5-methylpyrimidin-4-ylthio)phenyl)acrylamide]: the IC50 at human JAK1 was > 1 µM; on human JAK3, < 0.1 µM; in the experiment with CTLL2, < 1 µM.

Turning to `Cc1cnc(Nc2ccc(N3CCOCC3)cc2)nc1Sc1c(C)cc(N)cc1C` [Compound 165, 4-(4-ao-2,6-dimethylphenylthio)-5-methyl-N-(4-morpholinophenyl)pyrimidin-2-ae], the values for the IC50 at human JAK1, on human JAK3 and in the experiment on CTLL2 were > 1 µM, < 0.5 µM and > 20 µM, respectively.

Take `C=CC(=O)Nc1ccc(Sc2nc(Nc3ccc(N4CCC(O)C4)cc3)ncc2C)cc1` (stereo not drawn) [Compound 295, N-(4-(2-(4-(3-hydroxypyrrolidin-1-yl)phenylao)-5-methylpyrimidin-4-ylthio)phenyl)acrylamide]: the IC50 was > 1 µM at human JAK1, < 0.1 µM at human JAK3 and < 1 µM with CTLL2.

On to `OCc1cccc(Sc2ccnc(Nc3ccc(N4CCOCC4)cc3)n2)c1` [Compound 62, (3-(2-(4-Morpholinophenylamino)pyrimidin-4-ylthio)phenyl)methanol], for which the IC50 is > 1 µM on human JAK1, < 0.5 µM on human JAK3 and < 20 µM in the experiment on CTLL2.

For the molecule `C=CC(=O)Nc1cccc(Sc2ccnc(Nc3ccc(N4CCOCC4)cc3)n2)c1` [Compound 23, N-(3-(2-(4-morpholinophenylamino)pyrimidin-4-ylthio)phenyl)acrylamide], the values for the IC50 on human JAK1, at human JAK3 and in the experiment on CTLL2 were > 1 µM, < 0.1 µM and < 1 µM, respectively.

With `C=CC(=O)NCc1ccc(Sc2ccnc(Nc3ccc(N4CCOCC4)cc3)n2)cc1` [Compound 111, N-(4-(2-(4-morpholinophenylamino)pyrimidin-4-ylthio)benzyl)acrylamide], the IC50 at human JAK1 was > 1 µM; on human JAK3, < 0.1 µM; in the experiment with CTLL2, < 5 µM.

As to `C=CC(=O)Nc1ccc(Sc2nc(Nc3ccc(N4CCOCC4)cc3)ncc2C)c(C)c1` [Compound 163, N-(3-methyl-4-(5-methyl-2-(4-morpholinophenylao)pyrimidin-4-ylthio)phenyl)acrylamide], the IC50 is > 1 µM at human JAK1, < 0.1 µM on human JAK3 and < 1 µM in the experiment with CTLL2.

With `C=CC(=O)N(C)c1ccc(Sc2nc(Nc3ccc(N4CCOCC4)cc3)ncc2Br)cc1` [Compound 261, N-(4-(5-bromo-2-(4-morpholinophenylao)pyrimidin-4-ylthio)phenyl)-N-methylacrylamide], the IC50 was > 1 µM at human JAK1, < 0.1 µM at human JAK3 and < 1 µM in the experiment on CTLL2.

In the case of `C=CC(=O)Nc1ccc(Sc2ccnc(Nc3cc(C)cc(C)c3)n2)cc1` [Compound 82, N-(4-(2-(3,5-dimethylphenylao)pyrimidin-4-ylthio)phenyl)acrylamide], the IC50 at human JAK1 was > 1 µM; on human JAK3, < 0.1 µM; with CTLL2, < 20 µM.

Regarding `N#Cc1nnn(Cc2ccc(Sc3ccnc(Nc4ccc(N5CCOCC5)cc4)n3)cc2)n1` [Compound 156, 2-(4-(2-(4-morpholinophenylao)pyrimidin-4-ylthio)benzyl)-2H-tetrazole-5-carbonitrile], the values for the IC50 on human JAK1, on human JAK3 and in the experiment on CTLL2 were > 1 µM, < 0.1 µM and < 5 µM, respectively.

Regarding `C=CC(=O)Nc1ccc(Sc2nc(Nc3ccc(OC)c(OC)c3)ncc2C)cc1` [Compound 241, N-(4-(2-(3,4-dimethoxyphenylao)-5-methylpyrimidin-4-ylthio)phenyl)acrylamide], the IC50 on human JAK1 is > 1 µM; at human JAK3 it was < 0.1 µM; in the experiment with CTLL2 it was < 1 µM.

On to `C=CC(=O)Nc1cccc(Nc2nccc(Sc3ccc(OC)cc3)n2)c1` [Compound 42, N-(3-(4-(4-methoxyphenylthio)pyrimidin-2-ylao)phenyl)acrylamide], for which the IC50 is > 1 µM on human JAK1, < 0.1 µM at human JAK3 and < 5 µM with CTLL2.

On to `O=C(/C=C/Cl)Nc1cccc(Sc2ccnc(Nc3ccc(N4CCOCC4)cc3)n2)c1` [Compound 340, (E)-3-chloro-N-(3-(2-(4-morpholinophenylao)pyrimidin-4-ylthio)phenyl)acrylamide], for which the IC50 at human JAK1 was > 1 µM; at human JAK3, < 0.1 µM; with CTLL2, < 5 µM.

As for `Cc1cnc(Nc2ccc(N3CCOCC3)cc2)nc1Sc1ccc(N2C(=O)C=C(Br)C2=O)cc1` [Compound 382, 3-bromo-1-(4-(5-methyl-2-(4-morpholinophenylao)pyrimidin-4-ylthio)phenyl)-1H-pyrrole-2,5-dione], the IC50 on human JAK1 was > 1 µM; on human JAK3, < 0.1 µM; in the experiment with CTLL2 it was < 20 µM.

As for `C=CC(=O)Nc1ccc(Sc2nc(Nc3cccc(N4CCN(C)CC4)c3)ncc2C)cc1` [Compound 243, N-(4-(5-methyl-2-(3-(4-methylpiperazin-1-yl)phenylao)pyrimidin-4-ylthio)phenyl)acrylamide], the IC50 was > 1 µM on human JAK1, < 0.1 µM on human JAK3 and < 1 µM in the experiment with CTLL2.

Take `Cc1cnc(Nc2cccc(O)c2)nc1Sc1ccc(NC(=O)CCl)cc1` [Compound 194, 2-chloro-N-(4-(2-(3-hydroxyphenylao)-5-methylpyrimidin-4-ylthio)phenyl)acetamide]: the IC50 at human JAK1 was > 1 µM; at human JAK3 it was < 0.1 µM; in the experiment with CTLL2, < 1 µM.

Take `C=CC(=O)Nc1ccc(Sc2ccnc(Nc3ccc(N4CCOCC4)cc3)n2)cc1OC` [Compound 123, N-(2-methoxy-4-(2-(4-morpholinophenylao)pyrimidin-4-ylthio)phenyl)acrylamide]: the IC50 on human JAK1 is > 1 µM; at human JAK3 it was < 0.1 µM; in the experiment on CTLL2, < 20 µM.

For `C=CC(=O)Nc1cccc(Nc2nccc(Sc3ccccn3)n2)c1` [Compound 2, N-(3-(4-(pyridin-2-ylthio)pyrimidin-2-ylamino)phenyl)acrylamide], the IC50 at human JAK1 is > 1 µM; on human JAK3, < 0.1 µM; in the experiment on CTLL2, < 5 µM.

Take `c1cc(Sc2ccc(Cn3cnnn3)cc2)nc(Nc2ccc(N3CCOCC3)cc2)n1` [Compound 109, 4-(4-((1H-tetrazol-1-yl)methyl)phenylthio)-N-(4-morpholinophenyl)pyrimidin-2-ae]: the IC50 at human JAK1 is > 1 µM; on human JAK3, < 0.5 µM; in the experiment with CTLL2, > 20 µM.

Turning to `C=CC(=O)Nc1ccc(Sc2ccnc(Nc3cccc(N4CCOCC4)c3)n2)cc1` [Compound 77, N-(4-(2-(3-morpholinophenylao)pyrimidin-4-ylthio)phenyl)acrylamide], the IC50 was > 1 µM at human JAK1, < 0.1 µM at human JAK3 and < 1 µM in the experiment on CTLL2.

Take `C=CC(=O)Nc1ccc(Sc2nc(Nc3ccc(N4CCCC(O)C4)cc3)ncc2C)cc1` (stereo not drawn) [Compound 299, N-(4-(2-(4-(3-hydroxypiperidin-1-yl)phenylao)-5-methylpyrimidin-4-ylthio)phenyl)acrylamide]: the IC50 on human JAK1 was > 1 µM; at human JAK3, < 0.1 µM; in the experiment with CTLL2, < 1 µM.

For the origin of these results see patent US8846704B2, “Thiopyrimidine-based compounds and uses thereof” (YM Biosciences Austraila Pty Ltd, priority 2007, dated 2014).
